# Legend:
# Assay type in all cases: cell-based
# EGFR Del Ba/F3 cells = EGFR Del Ba/F3 cells (Homo sapiens, UniProt P00533, cells depend on it, form not given); experiment: Ba/F3 cell growth inhibition (MTS assay), EGFR Del; conditions: for IC50: Assay 1, Del, read-out: EGFR Ba/F3 cells IC 50 (nM) Assay 1 Del
# Excerpt: (§1) The specific cDNAs encoding the oncogenic alterations (EGFR: Del 19, L858R, L718Q, L844V, Del/T790M, L858R/T790M, Del 19/L718Q, Del 19/L844V, Del 19/T790M/L718Q and L858R/T790M/L718Q; FGFR: TEL-FGFR1, TEL-FGFR2, TEL-FGFR1 V561M, TEL-FGFR2 V561M; ALK: EML4-ALK; ROS1: CD74-ROS1) were cloned into the pDNA-Dual (BD Biosciences) vector using standard molecular biology techniques. Mutations were introduced using site-directed mutagenesis (Agilent) with mutant specific primers according to the manufacturer's instructions. All constructs were confirmed by DNA sequencing. The constructs were introduced into Ba/F3 cells using retroviral infection. Polyclonal cell lines were established by puromycin selection and subsequently cultured in the absence of interleukin-3 (IL-3). Uninfected Ba/F3 cells or cell lines expressing green fluorescent protein (GFP) were used as controls.
# (§2) Growth and inhibition of growth was assessed by MTS assay. This assay, a colorimetric method for determining the number of viable cells, is based on the bioreduction of 3-(4,5-dimethylthiazol-2-yl)-5-(3-carboxymethoxyphenyl)-2-(4-sulfophenyl)-2H-tetrazolium (MTS) by cells to a formazan product that is soluble in cell culture medium, can be detected spectrophotometrically and was performed according to the manufacturer's recommended conditions. Ba/F3 cells were exposed to treatment for 72 hours and the number of cells used per experiment determined empirically to assure linear growth kinetics over that time period. All experimental points were set up in six to twelve wells and all experiments were repeated at least three times. […] The curves were fitted using a non-linear regression model with a sigmoidal dose response.
# [1] = target: EGFR Del/T790M Ba/F3 cells (Homo sapiens, UniProt P00533, T790M, cells depend on it, form not given); experiment: Ba/F3 cell growth inhibition (MTS assay), EGFR Del/T790M; conditions: for EGFR activity (% Control, 100 nM drug) Del/T790M: Table G; for EGFR activity (% Control, 100 nM drug) DEL/T790M: Table F; for IC50: Assay 1, Del/T790M, read-out: EGFR Ba/F3 cells IC 50 (nM) Assay 1 Del/T790M
# Excerpt: as §1, §2
# EGFR L858R Ba/F3 cells = EGFR L858R Ba/F3 cells (Homo sapiens (Human), UniProt P00533, L858R); experiment: Ba/F3 cell growth inhibition (MTS assay), EGFR L858R; conditions: for IC50: Assay 1, L858R, read-out: EGFR Ba/F3 cells IC 50 (nM) Assay 1 L858R
# Excerpt: as §1, §2
# [2] = target: EGFR L858R/T790M Ba/F3 cells (Homo sapiens (Human), UniProt P00533, L858R/T790M); experiment: Ba/F3 cell growth inhibition (MTS assay), EGFR L858R/T790M; conditions: for IC50: Assay 1, L858R/T790M, read-out: EGFR Ba/F3 cells IC 50 (nM) Assay 1 L858R/T790M
# Excerpt: as §1, §2
# [3] = target: EGFR L718Q/L858R Ba/F3 cells (Homo sapiens (Human), UniProt P00533, L718Q/L858R); experiment: Ba/F3 cell growth inhibition (MTS assay), EGFR L858R/L718Q; conditions: for EGFR activity (% Control, 100 nM drug) L858R/L718Q: Table F; for IC50: Assay 1, L718Q/L858R, read-out: EGFR Ba/F3 cells IC 50 (nM) Assay 1 L718Q/L858R
# [4] = target: EGFR L858R/T790M/L718Q Ba/F3 cells (Homo sapiens (Human), UniProt P00533, L718Q/L858R/T790M); experiment: Ba/F3 cell growth inhibition (MTS assay), EGFR L858R/T790M/L718Q; conditions: for EGFR activity (% Control, 100 nM drug) L858R/T790M/L718Q: Table F; for IC50: Assay 1, T/L/L718Q, read-out: EGFR Ba/F3 cells IC 50 (nM) Assay 1 T/L/L718Q
# Excerpt: as §1, §2
Structure (SMILES),"EGFR activity (% Control, 100 nM drug) Del (EGFR Del Ba/F3 cells; Table G)","EGFR activity (% Control, 100 nM drug) Del/T790M [1]","EGFR activity (% Control, 100 nM drug) L858R (EGFR L858R Ba/F3 cells; Table G)","EGFR activity (% Control, 100 nM drug) L858R/T790M ([2]; Table G)","EGFR activity (% Control, 100 nM drug) Del (EGFR Del Ba/F3 cells; Table F)","EGFR activity (% Control, 100 nM drug) DEL/T790M [1]","EGFR activity (% Control, 100 nM drug) L858R (EGFR L858R Ba/F3 cells; Table F)","EGFR activity (% Control, 100 nM drug) L858R/T790M ([2]; Table F)","EGFR activity (% Control, 100 nM drug) L858R/L718Q [3]","EGFR activity (% Control, 100 nM drug) L858R/T790M/L718Q [4]",further results
C=CC(=O)N1CCC[C@H]1C(=O)Nc1ccc(OC)c(Nc2cc(N(C)C(=O)NCc3ccccc3)ncn2)c1 [Compound 23A],106 % Control,102 % Control,99 % Control,111 % Control,,,,,,,
C=CC(=O)Nc1cccc(Nc2cc(N(C(=O)NCc3ccccc3)c3ccc(N4CCN(C)CC4)cc3)ncn2)c1 [Compound 30A],94 % Control,104 % Control,10 % Control,103 % Control,,,,,,,
"COc1ccc(NC(=O)/C=C/CN(C)C)cc1Nc1ncc2c(n1)N(C)C(=O)N(c1ccccc1)C2 [Compound 7A, (E)-4-(dimethylamino)-N-(4-methoxy-3-((8-methyl-7-oxo-6-phenyl-5,6,7,8-tetrahydropyrimido[4,5-d]pyrimidin-2-yl)amino)phenyl)but-2-enamide]",,,,,35 % Control,94 % Control,5 % Control,102 % Control,96 % Control,106 % Control,
C=CC(=O)Nc1ccc(OC)c(Nc2cc(N(C)C(=O)Nc3ccc(F)c(Cl)c3)ncn2)c1 [Compound 18A],,,,,30 % Control,84 % Control,1 % Control,85 % Control,88 % Control,92 % Control,
C=CC(=O)N1CCC[C@@H]1C(=O)Nc1ccc(OC)c(Nc2cc(N(C)C(=O)NCc3ccccc3)ncn2)c1 [Compound 24A],95 % Control,101 % Control,84 % Control,108 % Control,,,,,,,
C=CC(=O)Nc1ccc(OC)c(Nc2cc(N(C)C(=O)Nc3ccccc3)ncn2)c1 [Compound 74A],,,,,,,,,,,IC50 (EGFR Del Ba/F3 cells): 5.16 nM; IC50 [1]: 278 nM; IC50 (EGFR L858R Ba/F3 cells): 0.572 nM; IC50 [2]: 215 nM; IC50 [3]: 243 nM; IC50 [4]: 780 nM
C=CC(=O)N1CCC[C@H]1C(=O)Nc1cc2c(N(CCOC)C(=O)NCc3ccccc3)ncnc2cc1OC [Compound 31A],111 % Control,110 % Control,108 % Control,112 % Control,,,,,,,
COc1cc2ncnc(N(C)C(=O)Nc3ccccc3)c2cc1NC(=O)[C@@H]1CCCN1C(=O)CCl [Compound 28A],102 % Control,83 % Control,94 % Control,97 % Control,,,,,,,
C=CC(=O)Nc1ccc(OC)c(Nc2cc(N(C)C(=O)Nc3ccccc3)ncn2)c1 [Compound 12A],,,,,0 % Control,117 % Control,1 % Control,48 % Control,47 % Control,84 % Control,
C=CC(=O)Nc1cccc(Nc2cc(N(C)C(=O)Nc3ccccc3)ncn2)c1 [Compound 13A],,,,,13 % Control,90 % Control,3 % Control,71 % Control,90 % Control,89 % Control,
C=CC(=O)Nc1ccc(OC)c(Nc2cc(N(C)C(=O)NCc3ccccc3)ncn2)c1 [Compound 16A],,,,,78 % Control,86 % Control,117 % Control,71 % Control,75 % Control,92 % Control,
COc1ccc(NC(=O)/C=C/CN(C)C)cc1Nc1cc(N(C)C(=O)Nc2ccccc2)ncn1 [Compound 20A],,,,,2 % Control,126 % Control,2 % Control,26 % Control,48 % Control,93 % Control,IC50 (EGFR Del Ba/F3 cells): 2.58 nM; IC50 [1]: 211 nM; IC50 (EGFR L858R Ba/F3 cells): 0.994 nM; IC50 [2]: 99.1 nM; IC50 [3]: 256 nM; IC50 [4]: 917 nM
"C=CC(=O)N1CCC[C@H]1C(=O)Nc1cc2c(N(C)C(=O)NCc3ccccc3)ncnc2cc1OC [Compound 5A, (S)-1-acryloyl-N-(4-(3-benzyl-1-methylureido)-7-methoxyquinazolin-6-yl)pyrrolidine-2-carboxamide]",100 % Control,110 % Control,107 % Control,96 % Control,,,,,,,
C=CC(=O)N1CC[C@H](CN(C(=O)Nc2ccccc2)c2cc(Nc3ccc(N4CCN(C)CC4)cc3OC)ncn2)C1 [Compound 33A],102 % Control,109 % Control,101 % Control,106 % Control,,,,,,,
C=CC(=O)N1CC[C@@H](CN(C(=O)Nc2ccccc2)c2cc(Nc3ccc(N4CCN(C)CC4)cc3OC)ncn2)C1 [Compound 32A],104 % Control,106 % Control,99 % Control,110 % Control,,,,,,,
C=CC(=O)N1CCC[C@H]1C(=O)Nc1cc2c(N(C)C(=O)Nc3ccccc3)ncnc2cc1OC [Compound 27A],95 % Control,76 % Control,87 % Control,102 % Control,,,,,,,
C=CC(=O)Nc1cccc(N(C(=O)NCc2ccccc2)c2cc(NC)ncn2)c1 [Compound 15A],,,,,47 % Control,107 % Control,3 % Control,48 % Control,81 % Control,86 % Control,IC50 (EGFR Del Ba/F3 cells): 91.9 nM; IC50 [1]: 842 nM; IC50 (EGFR L858R Ba/F3 cells): 17.7 nM; IC50 [2]: 376 nM; IC50 [3]: 2150 nM; IC50 [4]: 3260 nM
C=CC(=O)Nc1cccc(N(C(=O)Nc2ccc(F)c(Cl)c2)c2cc(Nc3ccc(N4CCN(C)CC4)cc3OC)ncn2)c1 [Compound 22A],,,,,3 % Control,84 % Control,3 % Control,4 % Control,84 % Control,106 % Control,
C=CC(=O)Nc1cccc(Nc2cc(N(C(=O)Nc3ccccc3)c3ccc(N4CCN(C)CC4)cc3)ncn2)c1 [Compound 26A],87 % Control,91 % Control,11 % Control,100 % Control,,,,,,,

# Source: patent US10906878B2, “Kinase inhibitors for the treatment of disease” (Dana-Farber Cancer Institute, Inc., priority 2013, dated 2021)
